Measurements as given in US9308210B2, “Method for modulating canonical Wnt pathway using folate and inositol” (University of South Florida, priority 2009, dated 2016).
Structures can show the parent of a compound that is named as a salt.

Assays:
[1] = tested on: Medium-Chain Acyl CoA Dehydrogenase (MCAD) protein; assay: Immunostaining of MCAD protein in E15.5 hearts; type: in vivo, mouse; details: E15.5 heart; versus control
Procedure: Li+-, and HCys-, and control, NaCl-exposed, embryos were fixed in 4% paraformaldehyde in PBS, paraffin embedded, and sectioned. Sections were immunostained with MCAD antibodies (Sigma, St. Louis, Mo.) for the protein product of Acadm gene expression. Primary antibody localization was visualized with Cy3-secondary antibodies. Localization of gene and protein expression was analyzed with a Nikon Optiphot II phase microscope (Nikon Instruments, Inc., Melville, N.Y.). Digitized images were obtained with a Nikon DS-L2 Camera unit.

[2] = tested on: E15.5 mouse hearts; assay: Histology of HCy-exposed E15.5 mouse hearts; type: in vivo; details: single HCy exposure on E6.75
Procedure: Li- and HCy-exposed embryos, and control NaCl-exposed embryos, were fixed in 4% paraformaldehyde in phosphate buffered saline (PBS, pH 7.4) and paraffin sectioned. Sections were stained with hematoxylin-eosin, and some were stained with Toluidine Blue, and examined. Cardiac regions were analyzed for the presence of any obvious malformations using a Nikon SMZ1500 fluorescent stereomicroscope, and digitized images were obtained using a Nikon DS-L2 camera unit.
Malformed and small aortic valves (AoV in H) and pulmonary valves (PV in I) were apparent. […] This was exemplified by a post-stenotic dilatation of the pulmonary artery, apparent in FIG. 12L. […] In summary, in addition to the general cardiac hypertrophy, the viable cardiac anomalies that were observed on E15.5 following a single HCy exposure on E6.75 related primarily to derivatives of the SHF, that is the outflow, the right ventricle, and the tricuspid and SL valves.

[3] = tested on: C57BL/6 mouse embryos; details: in vivo
[4] = tested on: HTR-8/SVneo cells; assay: In vitro wound assay of human trophoblast cell migration; type: cell-based; details: HCy exposure experiments; scrape wound
Excerpt: In previous studies by the inventors analyzing the effects of lithium and the metabolite homocysteine (HCy) on early heart development, the results were similar. Both factors inhibited Wnt/β-catenin-mediated gene expression during induction stages of cardiogenesis. […] Folate protects the embryo from these adverse effects (Han et al., 2009). It was also noted that normal placental development was adversely affected by Li and HCy. A human trophoblast cell line, HTR-8/SVneo cells, was used to determine whether Li or HCy affect the migration of these cells in vitro and whether FA or FA/myo-inositol would protect the cells from adverse effects of the two cardiac teratogens. HCy exposure experiments were conducted. […] The wound edges are depicted by a white line in B. In panel A, it can be seen that the wound area is smaller. Administration of a combination of FA/myo-inositol, FA alone or myo-inositol alone, enhanced the expression of NMHC-IIB and FN to facilitate cell migration.

[5] = tested on: wound area of mouse dorsum; assay: Mouse 3-mm excisional wound model with topical creams (FN, β-catenin, Lgr6 localization); type: in vivo; details: higher folate diet 10 mg/kg from one week prior to wounding
Excerpt: For the mouse studies the animals were divided by random assignment into experimental groups, using both sexes. Folic acid and folic acid/myo-inositol in combination were topically administered to the wound directly with an inert vanishing cream (provided by Carrollwood Pharmacy) as the vehicle of administration or also in combination with an orally administered dietary folic acid supplement. […] The creams contained (i) FA only; two doses of […] combination of higher MI to FA ratio, (iii) a combination of lower MI to FA ratio, (iv) MI only and (v) vehicle control cream. […] The control animals were maintained on normal animal chow containing 3.3 mg/kg FA to maintain health of the animals. After wounding, animals were housed separately and maintained on their respective folate diets. The animals were maintained in cages that were wood chip free on a dust free base for the first several days, to prevent bedding and bedding dust from getting into the freshly made wounds to lessen chances of infection. The animals were anesthetized using isoflurane inhalation. One 3-mm excisional circular wound was made using a dermal biopsy punch, followed by application of the experimental or control topical cream on the wound. The excised area remained uncovered and healing was closely monitored daily until wound was closed. At day 15 after wounding, the animal was euthanized. […]

[6] = seven years after FA fortification; Quebec, Canada; cited from earlier work

Row | SMILES | MCAD protein [1] | cardiac pathology on E15.5 [2] | DAPI [3] | DVPI [3] | E/A Ratio [3] | HR [3] [bpm] | ICT % [3] [%] | IRT % [3] [%] | MPI [3] | OF [3] [cm/s] | RR [3] [ms] | UAPI [3] | expression of NMHC-IIB and FN [4] | healing with dietary supplementation [5] | yearly decrease in the prevalence of severe heart defects [6] [%]
1 | N[C@H]1CCSC1=O [HCy, L-homocysteine thiolactone hydrochloride] | increased | right and left side cardiac hypertrophy |  |  |  |  |  |  |  |  |  |  |  |  | 
2 | Nc1nc2ncc(CNc3ccc(C(=O)N[C@@H](CCC(=O)O)C(=O)O)cc3)nc2c(=O)[nH]1 [FA, folic acid] |  |  | 1.82 | 1.04 | 0.28 | 191 | 7.32 | 12.82 | 0.50 | 34.30 | 314 | 1.71 | enhanced | no differences in healing | 6
